Reference: patent US20130197032A1, “[…] COMPOUNDS FOR THE TREATMENT OF NEUROLOGICAL AND […] DISORDERS” (A. CARLSSON RESEARCH AB, priority 2010, published 2013)

Assays:
[1] = biological target: T1, human 5-HT1D receptor (Homo sapiens, UniProt P28221); experiment: R-SAT assay 5-HT1D; assay type: cell-based; conditions: Table 3, 5-HT1D; for Eff (%): percent response of reference 5-CT
T1 construct: expressed in transfected cells; host or cells: NIH/3T3

[2] = biological target: T2, human M1 receptor (Homo sapiens, UniProt P11229); experiment: R-SAT assay M1; assay type: cell-based; conditions: Table 3, M1; percent response of reference Carbachol
T2 construct: expressed in transfected cells; host or cells: NIH/3T3
T2 sequence (P11229 whole entry): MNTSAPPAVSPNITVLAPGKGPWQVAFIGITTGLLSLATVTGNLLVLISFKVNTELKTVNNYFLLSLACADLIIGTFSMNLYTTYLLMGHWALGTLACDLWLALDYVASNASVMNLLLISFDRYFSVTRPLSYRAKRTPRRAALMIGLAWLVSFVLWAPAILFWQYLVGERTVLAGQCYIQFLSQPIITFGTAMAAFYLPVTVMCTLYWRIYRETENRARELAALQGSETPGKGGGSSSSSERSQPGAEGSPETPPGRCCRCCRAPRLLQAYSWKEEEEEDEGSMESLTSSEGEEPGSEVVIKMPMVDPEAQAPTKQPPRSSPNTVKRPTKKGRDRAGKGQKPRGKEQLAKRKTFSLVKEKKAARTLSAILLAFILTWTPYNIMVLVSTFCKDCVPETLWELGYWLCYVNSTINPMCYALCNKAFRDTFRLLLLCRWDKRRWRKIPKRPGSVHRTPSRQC

[3] = biological target: T3, human M3 receptor (Homo sapiens, UniProt P20309); experiment: R-SAT assay M3; assay type: cell-based; conditions: Table 3, M3; percent response of reference Carbachol
T3 construct: expressed in transfected cells; host or cells: NIH/3T3
T3 sequence (P20309 whole entry): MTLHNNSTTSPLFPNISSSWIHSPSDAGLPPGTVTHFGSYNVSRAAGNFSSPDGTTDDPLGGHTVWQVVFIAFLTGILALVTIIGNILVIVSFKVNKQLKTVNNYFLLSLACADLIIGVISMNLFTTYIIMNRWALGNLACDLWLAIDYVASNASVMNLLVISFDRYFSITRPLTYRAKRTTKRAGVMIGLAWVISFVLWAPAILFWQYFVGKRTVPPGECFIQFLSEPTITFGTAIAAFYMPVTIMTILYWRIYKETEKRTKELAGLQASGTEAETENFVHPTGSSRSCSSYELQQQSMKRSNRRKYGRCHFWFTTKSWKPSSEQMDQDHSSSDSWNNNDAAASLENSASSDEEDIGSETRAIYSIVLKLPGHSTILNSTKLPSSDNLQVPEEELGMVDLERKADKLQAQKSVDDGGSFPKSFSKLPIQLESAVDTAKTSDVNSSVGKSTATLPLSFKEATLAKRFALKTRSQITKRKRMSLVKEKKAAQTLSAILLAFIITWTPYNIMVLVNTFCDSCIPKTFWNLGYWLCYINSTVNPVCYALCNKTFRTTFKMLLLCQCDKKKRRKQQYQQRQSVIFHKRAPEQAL

[4] = biological target: T4, human alpha1B receptor (Homo sapiens, UniProt P35368); experiment: R-SAT assay α1B; assay type: cell-based; conditions: Table 3, α1B; percent response of reference Phenylephrine
T4 construct: expressed in transfected cells; host or cells: NIH/3T3 cells, transient transfection, pSI vector
T4 sequence (P35368 1-520): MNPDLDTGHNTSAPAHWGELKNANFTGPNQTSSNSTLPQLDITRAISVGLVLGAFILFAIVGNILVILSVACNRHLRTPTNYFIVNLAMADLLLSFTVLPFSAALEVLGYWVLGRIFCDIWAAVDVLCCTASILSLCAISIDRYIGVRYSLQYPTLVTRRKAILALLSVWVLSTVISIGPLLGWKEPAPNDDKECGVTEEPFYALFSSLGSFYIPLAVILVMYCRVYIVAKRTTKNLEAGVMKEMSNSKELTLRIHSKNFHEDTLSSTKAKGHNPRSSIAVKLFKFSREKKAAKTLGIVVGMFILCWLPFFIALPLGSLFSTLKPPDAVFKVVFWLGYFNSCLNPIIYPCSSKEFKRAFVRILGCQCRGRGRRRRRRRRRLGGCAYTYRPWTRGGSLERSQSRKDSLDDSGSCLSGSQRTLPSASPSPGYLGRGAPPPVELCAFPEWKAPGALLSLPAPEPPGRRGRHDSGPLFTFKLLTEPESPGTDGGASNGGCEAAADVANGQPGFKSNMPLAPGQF

[5] = test system: DOI-induced head twitches in mice; experiment: Antagonism of DOI-induced head twitch response in mice; assay type: in vivo; conditions: DOI 1 mg/kg ip, 75 or 150 μmol/kg ip
Procedure: The animals used in the head twitch experiments were individually placed in Macrolon type II cages and allowed to habituate to these test cages during 30 minutes before the video registration of behavior began. […] The animals were videotaped for 10 minutes; the behavior was scored during the first 5 minutes. The number of head twitches was counted from the videotapes by a person blind to the treatment.
The purpose of the second experiment was to investigate whether the OSU6162 enantiomers would be able to counteract DOI-induced head twitches. […] The mice were habituated to the test cages during 30 minutes before the video registration of behavior began. All compounds were administered 10 min before the registration of behavior started. DOI was given in dose of 1 mg/kg (ip) throughout. […] In b) the interaction between (+)-OSU6162 (75 or 150 μmol/kg ip) and DOI is shown. In c) the interaction between (−)- or (+)-OSU6162 (75 μmol/kg ip) and DOI is shown.

[6] = test system: active rats; experiment: Motor activity in active rats, video tracking; assay type: in vivo; conditions: 30, 60, 120 μmol/kg sc 30 minutes prior to recording
Procedure: Motor activity experiments in both active and habituated rats were performed on male Sprague-Dawley rats (Charles River, Germany) weighing 280-320 g. Prior to testing, rats were housed in groups of four or five in ventilated Macrolon type IV cages for approximately one week.
The rats were housed in reverse daylight cycle and all handling of the animals was performed in dim light. Test drugs were administered s.c. 30 minutes prior to registration of behavior. Single rats were introduced into rectangular arenas (l/w/h: 150×100×40 cm) illuminated indirectly by one infrared (IR) lamp (Neocom, South Korea). The rats' movements were recorded to digital (MPEG2) video files using an IR sensitive video camera (Panasonic WV-CPR480, lens: Panasonic LA-408C3) connected to a PC equipped with a MPEG-encoder (MVR1000SX, Canopus Co.).
Suspected outliers were evaluated one at the time with Grubbs' test for outliers (Grubbs F E (1969) Procedures for detecting outlying observations in samples. Technometrics 11(1):1-21).
The third series of experiments was performed in drug naive rats (FIG. 8). Rats were injected sc with saline (C, 0.9%) or either test drug 30 minutes prior to video recording. […] Behavior was registered under infrared light in rectangular arenas (150×100×40 cm) by video tracking. Motor activity is shown as velocity. Shown are means and SEM.

[7] = biological target: human serotonin transporter (SERT) (Homo sapiens, UniProt P31645); conditions: displacement of 3H-Imipramine
Chain of human serotonin transporter (SERT) (P31645 whole entry): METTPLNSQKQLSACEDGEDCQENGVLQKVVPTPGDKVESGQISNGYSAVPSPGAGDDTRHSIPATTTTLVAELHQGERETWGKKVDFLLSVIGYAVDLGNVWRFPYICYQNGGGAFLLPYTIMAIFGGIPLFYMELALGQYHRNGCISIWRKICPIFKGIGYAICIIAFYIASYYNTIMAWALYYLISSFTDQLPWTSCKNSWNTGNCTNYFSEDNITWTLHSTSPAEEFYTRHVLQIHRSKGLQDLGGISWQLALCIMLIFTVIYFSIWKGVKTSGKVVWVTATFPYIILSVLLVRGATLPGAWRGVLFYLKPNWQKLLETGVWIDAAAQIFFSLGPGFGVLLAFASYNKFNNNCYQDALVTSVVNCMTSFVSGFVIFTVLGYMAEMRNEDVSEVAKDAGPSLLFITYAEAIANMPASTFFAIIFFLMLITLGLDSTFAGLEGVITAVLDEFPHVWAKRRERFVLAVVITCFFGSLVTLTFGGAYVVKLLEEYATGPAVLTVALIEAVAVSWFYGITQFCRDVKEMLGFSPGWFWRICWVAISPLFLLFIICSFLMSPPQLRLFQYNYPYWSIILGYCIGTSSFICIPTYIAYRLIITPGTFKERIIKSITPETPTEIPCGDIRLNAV
Procedure: (§1) Cells were not centrifuged following cell scraping, but were collected directly into the ice-cold nitrogen cavitation chamber.
(§2) Membranes were prepared as described above. […] Binding reactions were terminated by filtration through UniFilter-96GF/B filters (from Perkin-Elmer, presoaked with 0.1% polyethylenimine for 1 h) with a Brandel 96-well harvester. Filters were washed with ice-cold wash buffer (50 mM Tris, 120 mM NaCl, pH7.4; 500 ml/plate) and then allowed to air-dry for 30 min. 50 μl MacrosScint-20 scintillation cocktail was added to each well, the plates were sealed, and then counted on a Top-Count (Packard).

[8] = test system: synthesis of dopamine in the striatum of the brain; conditions: Sonesson's thesis 1995; cited from earlier work
[9] = biological target: human dopamine transporter (DAT) (Homo sapiens, UniProt Q01959); experiment: Equilibrium radioligand binding to DAT; conditions: displacement of 125I-RTI-55
Chain of human dopamine transporter (DAT) (Q01959 whole entry): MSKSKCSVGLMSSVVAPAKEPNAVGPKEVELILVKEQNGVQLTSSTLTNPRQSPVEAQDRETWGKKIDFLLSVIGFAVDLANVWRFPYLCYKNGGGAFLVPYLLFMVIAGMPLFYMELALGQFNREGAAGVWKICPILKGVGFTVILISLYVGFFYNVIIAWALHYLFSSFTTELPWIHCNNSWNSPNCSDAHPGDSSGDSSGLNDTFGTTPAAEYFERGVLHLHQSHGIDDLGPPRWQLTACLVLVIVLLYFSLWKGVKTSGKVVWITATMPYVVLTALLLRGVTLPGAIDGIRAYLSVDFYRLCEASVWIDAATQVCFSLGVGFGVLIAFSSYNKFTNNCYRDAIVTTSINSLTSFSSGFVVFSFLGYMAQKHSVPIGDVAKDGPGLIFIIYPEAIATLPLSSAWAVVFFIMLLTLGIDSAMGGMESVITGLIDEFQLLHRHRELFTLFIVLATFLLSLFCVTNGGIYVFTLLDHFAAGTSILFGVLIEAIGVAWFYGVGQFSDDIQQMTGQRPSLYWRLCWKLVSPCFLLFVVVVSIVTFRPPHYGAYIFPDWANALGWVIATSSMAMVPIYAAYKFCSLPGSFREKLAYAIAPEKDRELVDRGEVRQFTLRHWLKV
Procedure: as §1, §2

[10] = biological target: human norepinephrine transporter (NET) (Homo sapiens, UniProt P23975); experiment: Equilibrium radioligand binding to NET; conditions: displacement of 3H-Imipramine
Chain of human norepinephrine transporter (NET) (P23975 whole entry): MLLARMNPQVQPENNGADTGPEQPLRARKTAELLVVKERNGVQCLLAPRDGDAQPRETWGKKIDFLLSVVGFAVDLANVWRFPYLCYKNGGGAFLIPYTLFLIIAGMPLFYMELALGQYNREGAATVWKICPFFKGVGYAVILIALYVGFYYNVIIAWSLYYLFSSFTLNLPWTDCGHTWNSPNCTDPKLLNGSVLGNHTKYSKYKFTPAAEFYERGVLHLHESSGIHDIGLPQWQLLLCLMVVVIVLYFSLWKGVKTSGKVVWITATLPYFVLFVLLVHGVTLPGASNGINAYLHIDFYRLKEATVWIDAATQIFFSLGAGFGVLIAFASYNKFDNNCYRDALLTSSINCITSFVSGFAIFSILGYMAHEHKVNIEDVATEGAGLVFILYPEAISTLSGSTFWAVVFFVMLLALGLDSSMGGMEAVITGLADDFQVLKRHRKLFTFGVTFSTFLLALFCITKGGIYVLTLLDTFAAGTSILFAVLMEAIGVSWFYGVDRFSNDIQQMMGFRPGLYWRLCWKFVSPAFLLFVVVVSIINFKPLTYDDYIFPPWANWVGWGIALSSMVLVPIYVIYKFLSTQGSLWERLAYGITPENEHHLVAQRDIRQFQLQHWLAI
Procedure: as §1, §2

[11] = biological target: 5-HT2B receptors (Homo sapiens, UniProt P41595); experiment: R-SAT assay 5-HT2B; assay type: cell-based; design: expressed in transfected cells; host or cells: NIH/3T3; conditions: Table 3, 5-HT2B; for EC50: negative logarithm of EC50 in molar, read-out: pEC50 (converted); for Eff (%): percent response of reference 5-CT
Chain of 5-HT2B receptors (P41595 whole entry): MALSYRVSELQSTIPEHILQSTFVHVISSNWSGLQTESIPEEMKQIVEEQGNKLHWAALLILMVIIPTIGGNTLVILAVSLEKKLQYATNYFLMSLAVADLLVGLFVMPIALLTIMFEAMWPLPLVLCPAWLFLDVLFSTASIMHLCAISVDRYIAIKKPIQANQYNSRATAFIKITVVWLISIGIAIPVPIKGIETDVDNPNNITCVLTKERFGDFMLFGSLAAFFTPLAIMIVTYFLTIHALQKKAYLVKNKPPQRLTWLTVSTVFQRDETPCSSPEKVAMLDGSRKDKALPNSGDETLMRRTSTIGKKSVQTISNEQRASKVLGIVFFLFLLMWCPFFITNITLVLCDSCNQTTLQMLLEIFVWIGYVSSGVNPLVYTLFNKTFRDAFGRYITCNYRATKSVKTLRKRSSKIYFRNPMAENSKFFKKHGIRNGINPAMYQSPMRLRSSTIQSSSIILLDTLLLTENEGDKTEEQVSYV

[12] = biological target: human 5-HT2A receptors (Homo sapiens, UniProt P28223); experiment: BRET2 beta-arrestin-2 recruitment assay at 5-HT2A; assay type: cell-based; design: expressed in transfected cells; host or cells: HEK-293T; conditions: mean ± SEM; for EC50: negative logarithm of EC50 in molar (M), HEK 293T cells, read-out: BRET2 pEC50 (converted); for BRET2 Eff %: percent response of reference ligand 5-HT
Chain of human 5-HT2A receptors (P28223 whole entry): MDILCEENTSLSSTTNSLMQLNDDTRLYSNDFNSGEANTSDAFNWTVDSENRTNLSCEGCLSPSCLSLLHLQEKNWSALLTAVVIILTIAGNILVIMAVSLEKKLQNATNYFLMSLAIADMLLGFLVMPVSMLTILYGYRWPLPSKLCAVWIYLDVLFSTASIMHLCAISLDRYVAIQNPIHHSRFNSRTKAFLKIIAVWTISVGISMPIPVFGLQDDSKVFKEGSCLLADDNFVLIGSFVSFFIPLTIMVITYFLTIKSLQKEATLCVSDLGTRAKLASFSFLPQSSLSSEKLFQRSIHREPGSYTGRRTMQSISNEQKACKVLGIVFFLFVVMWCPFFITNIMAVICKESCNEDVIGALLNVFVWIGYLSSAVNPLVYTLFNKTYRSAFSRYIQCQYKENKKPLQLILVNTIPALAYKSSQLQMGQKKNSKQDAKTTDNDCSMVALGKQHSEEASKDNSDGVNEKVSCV
Procedure: BRET-2 signals were measured using the multiplate reader Mithras 940LB (Berthold Technologies, Bad Wildbad, Germany) and were calculated as the ratio between the Renilla luciferase emission and the GFP2 emission corrected by the background emissions of non-transfected cells.

[13] = biological target: T5, human 5-HT7 receptor (Homo sapiens, UniProt P34969); experiment: R-SAT assay 5-HT7; assay type: cell-based; conditions: Table 3, 5-HT7; percent response of reference 5-CT
T5 construct: expressed in transfected cells; host or cells: NIH/3T3
T5 sequence (P34969 whole entry): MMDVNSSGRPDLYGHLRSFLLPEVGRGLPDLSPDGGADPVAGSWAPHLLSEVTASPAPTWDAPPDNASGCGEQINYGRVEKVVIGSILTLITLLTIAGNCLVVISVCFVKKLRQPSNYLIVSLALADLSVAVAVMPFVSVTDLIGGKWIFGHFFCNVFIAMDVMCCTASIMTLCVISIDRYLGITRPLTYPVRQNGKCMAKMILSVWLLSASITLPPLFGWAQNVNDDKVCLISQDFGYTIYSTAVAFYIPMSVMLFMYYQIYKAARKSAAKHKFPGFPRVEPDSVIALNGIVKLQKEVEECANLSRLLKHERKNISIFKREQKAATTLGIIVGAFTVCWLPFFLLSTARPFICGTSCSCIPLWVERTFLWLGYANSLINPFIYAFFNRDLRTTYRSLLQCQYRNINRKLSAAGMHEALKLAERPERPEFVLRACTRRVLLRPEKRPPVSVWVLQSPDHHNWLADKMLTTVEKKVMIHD

[14] = biological target: human D4 (variant 4.2) receptor (Homo sapiens, UniProt P21917, DEL265-296); assay type: cell-based
[15] = biological target: D2 receptors (Homo sapiens, UniProt P14416); experiment: Dissociation rate of dopamine from D2 receptors (off-rate assay); assay type: binding; conditions: data not shown

T1 sequence (P28221 whole entry): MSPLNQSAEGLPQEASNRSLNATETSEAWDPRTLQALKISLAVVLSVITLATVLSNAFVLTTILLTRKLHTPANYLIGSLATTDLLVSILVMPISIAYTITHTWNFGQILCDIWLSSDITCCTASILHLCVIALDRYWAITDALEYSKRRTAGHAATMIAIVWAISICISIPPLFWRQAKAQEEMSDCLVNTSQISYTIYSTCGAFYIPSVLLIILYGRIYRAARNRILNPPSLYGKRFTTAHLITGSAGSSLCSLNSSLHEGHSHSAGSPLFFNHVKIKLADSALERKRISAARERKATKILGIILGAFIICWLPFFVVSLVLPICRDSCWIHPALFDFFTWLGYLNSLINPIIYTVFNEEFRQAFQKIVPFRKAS

Row | SMILES | Eff (%) [1] [%] | Eff (%) [2] [%] | Eff (%) [3] [%] | Eff (%) [4] [%] | antagonism of DOI-induced head twitches [5] | motor activity (velocity) in active rats [6] | Inh % [7] [%] | Inh % [9] [%] | Inh % [10] [%] | EC50 [11] [µM] | Eff (%) [11] [%] | EC50 [12] [M] | other results
1 | CCCN1CCC[C@H](c2cccc(S(C)(=O)=O)c2)C1 [(+)-OSU6162, (3R)-3-[3-(methylsulfonyl)phenyl]-1-propylpiperidine] | 28 | 11 | 6 | 10 | neither 75 nor 150 μmol/kg of (+)-OSU6162 significantly antagonized DOI-induced head twitches | decreased motor activity in active rats | 38 | 5 | 14 | 5.01 | 111 | 1.58e-05 | synthesis of dopamine in the striatum of the brain [8]: weak increase in the synthesis of dopamine in the striatum of the brain; BRET2 Eff % ([12]; listed as (+) OSU-6162): ~80%; BRET2 Eff % ([12]; listed as (+)-OSU-6162): 84 ± 2%
2 | CCCN1CCC[C@@H](c2cccc(S(C)(=O)=O)c2)C1 [(−)-OSU6162, (3S)-3-[3-(methylsulfonyl)phenyl]-1-propylpiperidine] | 132 | 5 | 0 | −1 | significantly antagonized DOI-induced head twitches | decreased motor activity in active rats | 26 | 6 | 11 | 0.631 | 75 | 1e-05 | EC50 ([1]; negative logarithm of EC50 in molar): 5.01 µM; Eff (%) [13]: 7%; Eff (%) [14]: 40%; effect on dissociation rate of dopamine from D2 receptors [15]: did not significantly alter; BRET2 Eff % ([12]; listed as (−) OSU-6162): approximately 60%; BRET2 Eff % ([12]; listed as (−)-OSU-6162): 63 ± 2%
